Drawing on EP4691458A1, “SELF-MICROEMULSION PHARMACEUTICAL PREPARATION COMPOSITION CONTAINING ALK KINASE INHIBITOR AND PREPARATION METHOD THEREFOR” (Shouyao Holdings (Beijing) Co., Ltd., priority 2023, dated 2024), this text covers solubility and thermal stability for one molecule.

The nature of data set [1]: Solubility of the compound of formula (I) at different pH. The data set is classed as physicochemical. As for the experimental part:
(§1) The compound of formula (I) has strong hydrophobicity, poor water solubility, and significant pH dependence. It has high solubility at low pH (about 30 mg/ml at pH 1.2), and the solubility decreases sharply with increasing pH (about 10 ug/ml in water). […] Therefore, it is an urgent problem to overcome the shortcomings of the compound of formula (I), such as strong hydrophobicity, poor water solubility, and thermal instability, and to prepare it into a formulation with stable quality, good patient compliance, and wide clinical applicability.

Data set [2] is described as follows: Thermal stability of the compound of formula (I). The data set is classed as physicochemical. Particulars: degradation impurities generated at high temperatures. As for the experimental part:
as §1

The solubility is the dissolved amount per volume that the medium holds. For the molecule `COc1cc(N2CCC(N(C)C)CC2)ccc1Nc1nc2c(c(Nc3ccccc3S(=O)(=O)C(C)C)n1)CCN2` [compound of formula (I), N^2-(4-(4-(dimethylamino)piperidin-1-yl)-2-methoxyphenyl)-N^4-(2-(isopropylsulfonyl)phenyl)-6,7-dihydro-5H-pyrrolo[2,3-d]pyrimidine-2,4-diamine], the solubility was ~0.01 mg/mL in data set [1] (in water) and ~30 mg/mL in data set [1] (simulated gastric fluid, at pH 1.2). Moreover, the thermal stability entry in data set [2] is recorded as “thermally unstable”.
